Assay results from US20230085307A1, “PYRIDAZINONE COMPOUND AND HERBICIDE” (NISSAN CHEMICAL CORPORATION, priority 2019, published 2023).

Tests used:
wild oat [1] = assay: Test Example 5: herbicidal effect by foliage application, plastic box (Table 20, symbol I); type: in vivo, wild oat (Avena fatua); conditions: foliage application, 320 g/ha, evaluated three weeks after application
How it was run: (§1)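 Plants were sown into sterilized diluvial soil under about 1.5 cm cover and kept in a greenhouse at 25° C. to 30° C. Fourteen days on, foliage received an even spray of the diluted emulsion. Herbicidal or crop effect was judged three weeks afterwards.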

windgrass = assay: Test Example 4: herbicidal effect by soil treatment (Table 19, symbol L); type: in vivo, windgrass (Apera spica-venti); conditions: amount of applied herbicide 320 g/ha
How it was run: (§2)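 Pre-emergence style soil spray: seeds under ~1.5 cm sterilized diluvial soil received a uniform coat of emulsion diluted to the predetermined herbicide amount. Greenhouse 25–30° C; readout at week three on previously defined criteria.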

Chinese sprangletop = assay: Test Example 3: herbicidal effect by foliage application, Wagner pot (Table 18, symbol D); type: in vivo, chinese sprangletop (Leptochloa chinensis); conditions: amount of applied herbicide 320 g/ha
How it was run: (§3)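 Plants were sown in alluvial soil held under 0.1–0.5 cm standing water and grown 14 days in a greenhouse at 25–30 °C. An emulsifiable formulation, water-diluted to the set dose, was then sprayed onto the foliage, and effects were scored three weeks later using previously defined criteria.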

chickweed = assay: Test Example 4: herbicidal effect by soil treatment (Table 19, symbol P); type: in vivo, common chickweed (Stellaria media); conditions: amount of applied herbicide 320 g/ha
How it was run: as §2

Italian ryegrass [2] = assay: Test Example 4: herbicidal effect by soil treatment (Table 19, symbol K); type: in vivo, Italian ryegrass (Lolium multiflorum); conditions: amount of applied herbicide 320 g/ha
How it was run: as §2

southern crabgrass = assay: Test Example 4: herbicidal effect by soil treatment (Table 19, symbol F); type: in vivo, southern crabgrass (Digitaria ciliaris); conditions: amount of applied herbicide 320 g/ha
How it was run: as §2

barnyard grass = assay: Test Example 5: herbicidal effect by foliage application, plastic box (Table 20, symbol H); type: in vivo, barnyard grass (Echinochloa crus-galli); conditions: foliage application, 320 g/ha, evaluated three weeks after application
How it was run: as §1

blackgrass = assay: Test Example 5: herbicidal effect by foliage application, plastic box (Table 20, symbol J); type: in vivo, blackgrass (Alopecurus myosuroides); conditions: foliage application, 320 g/ha, evaluated three weeks after application
How it was run: as §1

Japanese bulrush = assay: Test Example 1: herbicidal activity, application before weed generation under submerged conditions (Table 16, symbol B); type: in vivo, Japanese bulrush (Schoenoplectus juncoides); conditions: 320 g/ha applied herbicide
How it was run: (§4)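 Emulsion formulation, water-diluted to set dose, was put onto the flooded surface (4 cm depth, alluvial soil) the same day weeds were sown and 2.5-leaf rice transplanted. After 3 weeks at 25-30 °C under glass, each species was rated 0 (≤5% kill) to 5 (≥90% kill).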

velvetleaf = assay: Test Example 5: herbicidal effect by foliage application, plastic box (Table 20, symbol M); type: in vivo, velvetleaf (Abutilon theophrasti); conditions: foliage application, 320 g/ha, evaluated three weeks after application
How it was run: as §1

green foxtail = assay: Test Example 5: herbicidal effect by foliage application, plastic box (Table 20, symbol G); type: in vivo, green foxtail (Setaria viridis); conditions: foliage application, 320 g/ha, evaluated three weeks after application
How it was run: as §1

late watergrass [3] = assay: Test Example 2: herbicidal activity, application during weed generation under submerged conditions (Table 17, symbol A); type: in vivo, late watergrass (Echinochloa oryzicola); conditions: AAH 320 g/ha; application during weed generation, submerged conditions
How it was run: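 Herbicide emulsion, diluted with water to the chosen amount, is applied onto 4 cm floodwater over alluvial soil where the weeds were co-sown and raised at 25–30° C. Application timing: 1–2 leaves. Assessment: three weeks afterwards.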

rice flat sedge = assay: Test Example 3: herbicidal effect by foliage application, Wagner pot (Table 18, symbol E); type: in vivo, rice flat sedge (Cyperus iria); conditions: amount of applied herbicide 320 g/ha
How it was run: as §3

Italian ryegrass [4] = assay: Test Example 5: herbicidal effect by foliage application, plastic box (Table 20, symbol K); type: in vivo, Italian ryegrass (Lolium multiflorum); conditions: foliage application, 320 g/ha, evaluated three weeks after application
How it was run: as §1

wild oat [5] = assay: Test Example 4: herbicidal effect by soil treatment (Table 19, symbol I); type: in vivo, wild oat (Avena fatua); conditions: amount of applied herbicide 320 g/ha
How it was run: as §2

late watergrass [6] = assay: Test Example 1: herbicidal activity, application before weed generation under submerged conditions (Table 16, symbol A); type: in vivo, late watergrass (Echinochloa oryzicola); conditions: 320 g/ha applied herbicide
How it was run: as §4

lambsquarters = assay: Test Example 4: herbicidal effect by soil treatment (Table 19, symbol O); type: in vivo, lambsquarters (Chenopodium album); conditions: amount of applied herbicide 320 g/ha
How it was run: as §2

Compound	L: windgrass, herbicidal effect rating (windgrass)	herbicidal effect on D: Chinese sprangletop (Chinese sprangletop)	P: chickweed, herbicidal effect rating (chickweed)	K: Italian ryegrass, herbicidal effect rating (Italian ryegrass [2])	F: southern crabgrass, herbicidal effect rating (southern crabgrass)	Herbicidal effect on B: Japanese bulrush (grade 0-5) (Japanese bulrush)	herbicidal effect rating, A: late watergrass (late watergrass [3])	herbicidal effect on E: rice flat sedge (rice flat sedge)	I: wild oat, herbicidal effect rating (wild oat [5])	Herbicidal effect on A: late watergrass (grade 0-5) (late watergrass [6])	O: lambsquarters, herbicidal effect rating (lambsquarters)	herbicidal effect on I: wild oat (criteria 0-5) (wild oat [1])	herbicidal effect on H: barnyard grass (criteria 0-5) (barnyard grass)	herbicidal effect on J: blackgrass (criteria 0-5) (blackgrass)	herbicidal effect on M: velvetleaf (criteria 0-5) (velvetleaf)	herbicidal effect on G: green foxtail (criteria 0-5) (green foxtail)	herbicidal effect on K: Italian ryegrass (criteria 0-5) (Italian ryegrass [4])	other results
CCCC(=O)Oc1c(C)nn(C)c(=O)c1-c1c(-c2ccccc2OC)sc2ccc(C)cc12 [2-139]	0 (Herbicidal rate of 5% or less (almost no effect))	0 (Herbicidal rate of 5% or less (almost no effect))	5 (Herbicidal rate of 90% or more (almost completely withered))	1 (Herbicidal rate of 5% or more and less than 20%)	0 (Herbicidal rate of 5% or less (almost no effect))	3 (Herbicidal rate of 40% or more and less than 70%)	3 (Herbicidal rate of 40% or more and less than 70%)	4 (Herbicidal rate of 70% or more and less than 90%)	0 (Herbicidal rate of 5% or less (almost no effect))	4 (Herbicidal rate of 70% or more and less than 90%)	0 (Herbicidal rate of 5% or less (almost no effect))	–	–	–	–	–	–	herbicidal effect on I: wild oat (wild oat [1]): 1 (Herbicidal rate of 5% or more and less than 20%); herbicidal effect on H: barnyard grass (barnyard grass): 4 (Herbicidal rate of 70% or more and less than 90%); herbicidal effect on J: blackgrass (blackgrass): 2 (Herbicidal rate of 20% or more and less than 40%); herbicidal effect on M: velvetleaf (velvetleaf): 3 (Herbicidal rate of 40% or more and less than 70%); herbicidal effect on G: green foxtail (green foxtail): 3 (Herbicidal rate of 40% or more and less than 70%); herbicidal effect on K: Italian ryegrass (Italian ryegrass [4]): 1 (Herbicidal rate of 5% or more and less than 20%)
C=Cc1ccc2sc(-c3ccccc3OC)c(-c3c(O)c(C)nn(C)c3=O)c2c1 [2-185]	0 (Herbicidal rate of 5% or less (almost no effect))	0 (Herbicidal rate of 5% or less (almost no effect))	0 (Herbicidal rate of 5% or less (almost no effect))	0 (Herbicidal rate of 5% or less (almost no effect))	0 (Herbicidal rate of 5% or less (almost no effect))	5 (Herbicidal rate of 90% or more (almost completely withered))	3 (Herbicidal rate of 40% or more and less than 70%)	2 (Herbicidal rate of 20% or more and less than 40%)	0 (Herbicidal rate of 5% or less (almost no effect))	0 (Herbicidal rate of 5% or less (almost no effect))	1 (Herbicidal rate of 5% or more and less than 20%)	0 (Herbicidal rate of 5% or less (almost no effect))	0 (Herbicidal rate of 5% or less (almost no effect))	1 (Herbicidal rate of 5% or more and less than 20%)	5 (Herbicidal rate of 90% or more (almost completely withered))	3 (Herbicidal rate of 40% or more and less than 70%)	0 (Herbicidal rate of 5% or less (almost no effect))	–
Cc1nn(C)c(=O)c(-c2c(-c3ccccc3)sc3ccc(F)cc23)c1O [2-197]	1 (Herbicidal rate of 5% or more and less than 20%)	5 (Herbicidal rate of 90% or more (almost completely withered))	3 (Herbicidal rate of 40% or more and less than 70%)	4 (Herbicidal rate of 70% or more and less than 90%)	4 (Herbicidal rate of 70% or more and less than 90%)	3 (Herbicidal rate of 40% or more and less than 70%)	3 (Herbicidal rate of 40% or more and less than 70%)	5 (Herbicidal rate of 90% or more (almost completely withered))	1 (Herbicidal rate of 5% or more and less than 20%)	3 (Herbicidal rate of 40% or more and less than 70%)	5 (Herbicidal rate of 90% or more (almost completely withered))	4 (Herbicidal rate of 70% or more and less than 90%)	5 (Herbicidal rate of 90% or more (almost completely withered))	4 (Herbicidal rate of 70% or more and less than 90%)	5 (Herbicidal rate of 90% or more (almost completely withered))	5 (Herbicidal rate of 90% or more (almost completely withered))	4 (Herbicidal rate of 70% or more and less than 90%)	–
CCCC(=O)Oc1c(C)nn(C)c(=O)c1-c1c(-c2ccccc2)sc2ccc(F)cc12 [2-198]	3 (Herbicidal rate of 40% or more and less than 70%)	5 (Herbicidal rate of 90% or more (almost completely withered))	4 (Herbicidal rate of 70% or more and less than 90%)	4 (Herbicidal rate of 70% or more and less than 90%)	5 (Herbicidal rate of 90% or more (almost completely withered))	3 (Herbicidal rate of 40% or more and less than 70%)	2 (Herbicidal rate of 20% or more and less than 40%)	5 (Herbicidal rate of 90% or more (almost completely withered))	4 (Herbicidal rate of 70% or more and less than 90%)	5 (Herbicidal rate of 90% or more (almost completely withered))	4 (Herbicidal rate of 70% or more and less than 90%)	4 (Herbicidal rate of 70% or more and less than 90%)	3 (Herbicidal rate of 40% or more and less than 70%)	4 (Herbicidal rate of 70% or more and less than 90%)	5 (Herbicidal rate of 90% or more (almost completely withered))	4 (Herbicidal rate of 70% or more and less than 90%)	5 (Herbicidal rate of 90% or more (almost completely withered))	–
Cc1nn(C)c(=O)c(-c2c(-c3ccccc3F)sc3ccc(F)cc23)c1O [2-199]	0 (Herbicidal rate of 5% or less (almost no effect))	5 (Herbicidal rate of 90% or more (almost completely withered))	2 (Herbicidal rate of 20% or more and less than 40%)	3 (Herbicidal rate of 40% or more and less than 70%)	2 (Herbicidal rate of 20% or more and less than 40%)	3 (Herbicidal rate of 40% or more and less than 70%)	0 (Herbicidal rate of 5% or less (almost no effect))	5 (Herbicidal rate of 90% or more (almost completely withered))	0 (Herbicidal rate of 5% or less (almost no effect))	1 (Herbicidal rate of 5% or more and less than 20%)	4 (Herbicidal rate of 70% or more and less than 90%)	1 (Herbicidal rate of 5% or more and less than 20%)	3 (Herbicidal rate of 40% or more and less than 70%)	3 (Herbicidal rate of 40% or more and less than 70%)	5 (Herbicidal rate of 90% or more (almost completely withered))	5 (Herbicidal rate of 90% or more (almost completely withered))	4 (Herbicidal rate of 70% or more and less than 90%)	–
